Patent US20240252581A1, “COMPOSITIONS AND METHODS FOR TREATING RESPIRATORY DISTRESS” (S.I.S. SHULOV INNOVATIVE SCIENCE LTD., priority 2021, published 2024)
Square brackets hold non-standard residues; d marks the D form. * marks the point of attachment. pGlu = O=C1CC[C@@H](C(=O)O)N1; Octanoyl = CCCCCCCC(=O)*

Assay: Oxygen saturation in mouse model of LPS-inflamed lungs (Rodent Pulse Oximeter)
Type: in vivo, Balb/C female mice
Experimental: Evaluation of the effect of ZEP3Na administration via inhalation on oxygen saturation in a mouse model of inflamed lungs by the lipopolysaccharides (LPS) was performed. Oxygen saturation testing was performed at several time points on mice that have been anesthetized by isoflurane. A sensor was attached to the hind foot of the mice and the percentage of oxygen in the blood was measured using the Rodent Pulse Oximeter instrument (Kent Scientific).
Following LPS intratracheal instillation, a marked reduction in blood oxygen saturation levels was detected. ZEP3Na was then administered by inhalation at two doses 6 h and 14 h after LPS administration and the effect of ZEP3Na on blood oxygen saturation was monitored 0, 2, 6, 12, 24 and 48 hours following ZEP3Na administration. Saturation data was analyzed by ANOVA followed by Tukey-Kramer test. Significance level was defined as ∝=0.05.

pGlu-Asn-Trp-Lys(Octanoyl)-OH ([pGlu]NWK(Octanoyl)-OH; SMILES CCCCCCCC(=O)NCCCC[C@H](NC(=O)[C@H](Cc1c[nH]c2ccccc12)NC(=O)[C@H](CC(N)=O)NC(=O)[C@@H]1CCC(=O)N1)C(=O)O) [ZEP3]
time after administration over which increase in oxygen saturation was exerted (acute inflamed lung model): at least 48 hours | time following treatment at which increase in oxygen saturation is statistically significant (administration by inhalation, LPS model): 12 h
